In PubChem BioAssay (NCI):
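How tested: cells in 96-well plates exposed to compound for 48 hours at five concentrations. GI50 marks 50% less growth. TGI denotes the concentration required for complete inhibition of growth.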

What was measured:
Assay in all cases: NCI anticancer screen, dose series, 48 h
K-562 leukemia = system: K-562 leukemia
MOLT-4 leukemia = system: MOLT-4 leukemia
SNB-19 CNS = system: SNB-19 CNS
NCI-H226 lung = system: NCI-H226 lung
OVCAR-4 ovarian = system: OVCAR-4 ovarian
DU-145 prostate = system: DU-145 prostate
786-0 renal = system: 786-0 renal
MDA-MB-435 = system: MDA-MB-435
HOP-92 NSCLC = system: HOP-92 NSCLC
SK-MEL-5 melanoma = system: SK-MEL-5 melanoma

SMILES	TGI (K-562 leukemia) [µM]	TGI (MOLT-4 leukemia) [µM]	TGI (SNB-19 CNS) [µM]	TGI (NCI-H226 lung) [µM]	TGI (OVCAR-4 ovarian) [µM]	TGI (DU-145 prostate) [µM]	TGI (786-0 renal) [µM]	TGI (MDA-MB-435) [µM]	TGI (HOP-92 NSCLC) [µM]	TGI (SK-MEL-5 melanoma) [µM]	GI50 (K-562 leukemia) [µM]	GI50 (HOP-92 NSCLC) [µM]	GI50 (SK-MEL-5 melanoma) [µM]	GI50 (MOLT-4 leukemia) [µM]	GI50 (SNB-19 CNS) [µM]	GI50 (NCI-H226 lung) [µM]	GI50 (OVCAR-4 ovarian) [µM]	GI50 (DU-145 prostate) [µM]	GI50 (MDA-MB-435) [µM]
COc1ccc(/C=N/n2c(Cc3ccccc3)n[nH]c2=O)cc1	> 100	> 100	> 100	> 100	> 100	> 100	> 100	> 100	–	–	–	–	–	–	–	–	–	–	–
C/C(=N\Nc1nc2ccccc2n1C)c1ccc2ccccc2n1	10.6	–	> 100	6.83	0.954	14.5	11.5	42.7	37.8	5.43	–	–	–	–	–	–	–	–	–
O[C@]12c3ccccc3C1CCCCC2N1CCOCC1 (some centres undefined)	> 100	–	> 100	> 100	> 100	–	> 100	–	–	> 100	–	–	–	–	–	–	–	–	–
Cc1ccc2oc3c(ccc(=O)n3C)c(=O)c2c1	> 100	–	> 100	> 100	> 100	> 100	–	> 100	> 100	> 100	–	–	–	–	–	–	–	–	–
Cc1cc(C)nc(NC(=S)Nc2ccc(Cl)cc2)c1	> 100	> 100	> 100	> 100	61.1	> 100	80.2	> 100	–	> 100	–	–	–	–	–	–	–	–	–
CSC1(Cc2ccccn2)C(=O)Nc2cccc([N+](=O)[O-])c21 (centres undefined)	–	> 100	> 100	> 100	> 100	> 100	> 100	> 100	> 100	> 100	–	–	–	–	–	–	–	–	–
CC(C)(CC1(C)NC(=O)NC1=O)OCc1ccccc1 (centres undefined)	> 100	–	> 100	–	> 100	> 100	> 100	> 100	> 100	> 100	–	–	–	–	–	–	–	–	–
Nc1ncc(Sc2ccccc2C(=O)O)s1	> 100	> 100	> 100	> 100	–	> 100	> 100	> 100	> 100	> 100	–	–	–	–	–	–	–	–	–
COc1cccc(/C=N/[N-]C(N)=O)c1[O-].[OH3+].[Pd+2]	> 100	> 100	> 100	> 100	> 100	–	> 100	–	> 100	> 100	–	–	–	–	–	–	–	–	–
CCOc1cc(/C=C/C(=O)CC(=O)/C=C/c2ccc(OC(=O)CNCCN(CC)CC)c(OCC)c2)ccc1OC(=O)CNCCN(CC)CC	16.3	2.72	14.2	5.17	> 100	3.56	–	6.31	6.2	3.17	1.44	1.74	1.55	0.531	2.86	2.15	4.35	1.61	1.56
Cn1c(SCc2c[nH]c3ccccc23)nnc1-c1ccc(Cl)cc1Cl	24.9	27.5	61.7	–	34.2	78.5	68.6	12	53	27.5	–	–	–	–	–	–	–	–	–
Nc1ncnc2c1N=C(c1ccccc1)CC(c1ccccc1)N2 (centres undefined)	> 100	> 100	> 100	> 100	> 100	> 100	> 100	> 100	> 100	–	–	–	–	–	–	–	–	–	–
O=C1CC(=O)NC(=NN2C(=O)/C(=C/c3ccc(Cl)cc3)N=C2c2ccccc2)N1	28	22.7	–	31.5	22.5	> 100	37.5	29.1	26.1	32	–	–	–	–	–	–	–	–	–
CCOC(=O)[C@@H]1C[C@@H]1c1ccc(O)c(O)c1	32.9	22.5	> 100	97.4	–	> 100	34.7	34.5	> 100	27.5	–	–	–	–	–	–	–	–	–
CC1=CC(=O)c2c(O)c3c(c(O)c2C1=O)C1C(O)C(C3=O)C23C(=O)c4c(O)c(C)cc(O)c4C(O)=C2C(=O)CC(O)C13 (centres undefined)	> 100	13	20.2	6.56	28	3.61	5.69	2.81	–	4	–	–	–	–	–	–	–	–	–
COc1cccc2c1[C@H]1OC(=O)NC1CCCCC2 (some centres undefined)	> 100	> 100	> 100	> 100	> 100	–	> 100	–	–	> 100	–	–	–	–	–	–	–	–	–
CC1=C2CC(C)(C)CC(=O)C2(C)CCC1=O (centres undefined)	> 100	> 100	> 100	> 100	> 100	> 100	> 100	–	–	> 100	–	–	–	–	–	–	–	–	–
CCOP(=O)(/C=C\n1ccc(=O)[nH]c1=O)OCC	> 100	> 100	> 100	> 100	> 100	> 100	> 100	> 100	–	> 100	–	–	–	–	–	–	–	–	–
Cc1ccc(C=C(C(=O)O)C(=O)O)o1	> 100	> 100	> 100	> 100	–	> 100	> 100	> 100	–	> 100	–	–	–	–	–	–	–	–	–
COCCOCCOCCC(=O)NC1CC2CCC1(C)C2(C)C (centres undefined)	> 100	> 100	> 100	> 100	> 100	> 100	> 100	> 100	–	> 100	–	–	–	–	–	–	–	–	–
CCCCOc1ccc(S(=O)(=O)/N=C(\N)Nc2ccc(Cl)cc2)cc1	37.4	29.9	33.3	44.4	26.5	34.3	30.9	–	23.7	47.8	–	–	–	–	–	–	–	–	–
CCCCC1Cc2cc(OC)ccc2-c2n1c1cc(OC)ccc1[n+]2C (centres undefined) (tested in a mixture with another compound)	> 62.8	> 51.6	–	24.2	20.7	> 64.1	> 100	3.79	7.02	3.76	–	–	–	–	–	–	–	–	–
CCCCOCCOCCOC1=C(Cl)C(=O)c2c(O)ccc(O)c2C1=O	–	0.1	3.2	3.21	1.38	3.16	3.4	–	0.437	1.53	–	–	–	–	–	–	–	–	–
